{"source": "patent EP3222276B1", "about": "“PHARMACEUTICAL COMPOSITION FOR TREATING CANCER AND BIOMARKER FOR DRUG SCREENING” (National Defense Medical Center, priority 2014, dated 2016)", "key": {"ACHN cells [1]": {"system": "ACHN cells", "assay": "SRB assay of cell survival / growth inhibition", "format": "cell-based, Human", "conditions": "5 µM sorafenib or 10 µM GW5074 alone, or both combined (GW5074 30 minutes before sorafenib); 24 hours", "procedure": "Human renal carcinoma (ACHN) cells were cultured in Eagle MEM (Minimum Essential Medium) with 10% FBS (Fetal Bovine Serum) and 1% penicillin/streptomycin. Sulforhodamine B (SRB) is a negative […] with a sulfonic acid group and binds to basic amino acids of intracellular proteins in weak acidic conditions. The SRB […] was extracted from cells using weak alkaline solution and then subjected to absorbance measurement. The amount of intracellular proteins, which is an indicator for cell survival, can be calculated from the amount of SRB."}, "ACHN cells [2]": {"system": "ACHN cells", "assay": "ACHN xenograft in immunodeficient mice, tumor volume", "format": "in vivo", "conditions": "5 mg/kg sorafenib oral, 10 mg/kg GW5074 s.c., alone or combined; once a day for three weeks; n=8", "procedure": "Six-week old immnunodeficient male mice (BALB/cAnN.Cg-Foxn1^nu/CrlNarl) with an average weight of 20 grams were xenografted with 1x10^7 ACHN cells to the right by […]. The mice were maintained in a specific pathogen-free (SPF) environment. The size of tumor was measured using a digital caliper twice a week and tumor volume was calculated by the equation of length^∗width^∗height^∗0.5. […] A total of four groups were included in the experiment: a control group which received only vehicle (DMSO), […], 25 mg/kg GW5074, […], respectively, with 8 mice in each group."}, "Luc-ACHN-LL cells": {"system": "Luc-ACHN-LL cells", "assay": "Orthotopic metastasis model of renal carcinoma, IVIS photon signal and survival", "format": "in vivo, mice", "conditions": "for death within, following injection of cancer cells: 10 mg/kg sorafenib alone or 25 mg/kg GW5074 alone", "procedure": "To simulate clinical phenomenon, we established an orthotopic spontaneous animal model for studying metastasis of renal carcinoma. First, ACHN cells were transfected with the luciferase gene and the resultamt Luc-ACHN transfectants (stable transfectants which express the luciferase) with different expression levels were then selected for in vivo culture in mice by subcutaneous injection. Six-week old and shaved mice were subcutaneously injected with 1×10^7 Luc-ACHN cells In 0.1 ml PBS. Two months after the injection, the mice were sacrificed and their kidneys, livers, regional lymph nodes as well as other organs were collected for assessing tumor cells that were potentially metastatic, which was confirmed by hematoxylin-eosin (H&E) staining. Tumor cell lines that are highly metastatic were dissected in 1 ml PBS into small pieces aseptically and then cultured in MEM media containing 10% FBS (fetal bovine serum) and 1% penicillin/streptomycin following centrifugation. A few days later, monoclonal cell lines were first treated with the trypsin to dissociate the cells and then cultured in vitro. The cells obtained from liver tumor tissues were named ACHN-L. The metastatic potential of various monoclonal cell lines collected from different organs was further analyzed by xenografting these tumor cells to the left kidneys of mice. The xenografted mice were sacrificed and examined 8 weeks after the injection of tumor cells. The tumor growth observed in each organ was investigated through visual examination and histology procedures. The metastatic cells found in the liver were dissected into small pieces aseptically and cultured in vitro. The cells obtained from liver tumor tissues were named ACHN-L (subcutaneous injection) cells and the cells collected from the metastatic lesions after injection of ACHN-L cells to the left kidneys were called ACHN-LL cells. The same procedure using orthotopic xenograft of ACHN-LL cells and liver metastatic cells was repeated twice to select for highly metastatic tumors. The cancer cell line (Luc-ACHN-LL), which is highly metastatic and causes high mortality, was selected. Immunodeficient male mice was injected with 3×10^5 Luc-ACHN-LL cells in 50 µL PBS at the right renal capsule. The in vivo luciferase activity was examined every day for up to three weeks so as to assure that there were no leakage of cancer cells at the kidneys immediately after the injection and to monitor the metastasis of these cancer cells. Two to five minutes before utilizing the IVIS Xenogene system, 75 mg/kg D-Luciferin (Xenogen) in PBS was injected to the retro-orbital sinus of each mouse. […]"}, "ACHN cells [3]": {"system": "ACHN cells", "assay": "Annexin V-FITC / propidium iodide flow cytometry for apoptosis or necrosis", "format": "cell-based, Human", "conditions": "5 µM sorafenib, 10 µM GW5074 or both; 24 hours; n=4", "procedure": "(§1) The combination therapy of sorafenib and GW5074 induces cell necrosis through the dephosphorylation of the death-associated DAPK at serine 308 followed by dissociation from proto-oncogene c-Raf. Cells were cultured as described in example 1, washed with phosphate buffered saline (PBS), and stained with the annexin V-FITC and propidium iodide (PI) for 15 minutes. The presence of fluorescent Annexin V as well as propidium iodide (PI) was detected by flow cytometry so as to determine whether the cell death is caused by apoptosis or necrosis. The expression of c-Raf and DAPK as well as the phosphorylation level of DAPK were examined by Western blot and immunoprecipitation using antibodies. Anti-DAPK antibodies or non-immune rabbit IgG (IP: immunoglobulin) were included as negative controls, and cell survival was measured by SRB assay, as shown In example 1. In this experiment, ACHN cells were treated separately with DMSO (as a control group), 5 µM sorafenib, 10 µM GW5074, or the combination therapy of 5 µM sorafenib and 10 µM GW5074 for 24 hours."}, "pDAPK^S308": {"system": "pDAPK^S308", "assay": "Western blot of DAPK S308 phosphorylation in ACHN cells", "format": "cell-based, Human", "conditions": "various concentrations, only when provided 30 minutes prior to the combination drugs", "procedure": "as §1"}}}
{"smiles": "O=C1Nc2ccc(I)cc2C1=Cc1cc(Br)c(O)c(Br)c1", "note": "[GW5074, 3-(3,5-Dibromo-4-hydroxy-benzylidene)-5-iodo-1,3-dihydro-indol-2-one]", "values": [{"measurement": "growth inhibition of cells", "setting": "ACHN cells [1]", "value": "no growth inhibition"}, {"measurement": "inhibition effect on xenografted tumor growth (tumor volume)", "setting": "ACHN cells [2]", "value": "nearly no inhibition effect"}, {"measurement": "death within, following injection of cancer cells", "setting": "Luc-ACHN-LL cells", "value": "≤ 5", "unit": "weeks"}, {"measurement": "average cell necrosis rate", "setting": "ACHN cells [3]", "value": 1.35, "unit": "%"}]}
{"smiles": "CNC(=O)c1cc(Oc2ccc(NC(=O)Nc3ccc(Cl)c(C(F)(F)F)c3)cc2)ccn1", "note": "[sorafenib]", "values": [{"measurement": "growth inhibition of cells", "setting": "ACHN cells [1]", "value": "no growth inhibition"}, {"measurement": "inhibition effect on xenografted tumor growth (tumor volume)", "setting": "ACHN cells [2]", "value": "nearly no inhibition effect"}, {"measurement": "death within, following injection of cancer cells", "setting": "Luc-ACHN-LL cells", "value": "≤ 8", "unit": "weeks"}, {"measurement": "body weight", "setting": "Luc-ACHN-LL cells; high-dose 60 mg/kg sorafenib", "value": "loss of weight"}, {"measurement": "death within", "setting": "Luc-ACHN-LL cells; high-dose 60 mg/kg sorafenib", "value": "≤ 10", "unit": "weeks"}, {"measurement": "average cell necrosis rate", "setting": "ACHN cells [3]", "value": 0.77, "unit": "%"}]}
{"smiles": "C=C1[C@@H](O)[C@@H]2O[C@]3(CC[C@H](/C=C/[C@@H](C)[C@@H]4CC(C)=C[C@@]5(O[C@H](C[C@@](C)(O)C(=O)O)CC[C@H]5O)O4)O3)CC[C@H]2O[C@@H]1[C@@H](O)C[C@H](C)[C@H]1O[C@@]2(CCCCO2)CC[C@H]1C", "note": "[Okadaic acid]", "values": [{"measurement": "inhibition of dephosphorylation of pDAPK^S308 and growth of ACHN cells", "setting": "pDAPK^S308", "value": "effective"}]}
